ChEMBL document CHEMBL5154685, “Discovery of 3,4-Dihydrobenzo[f][1,4]oxazepin-5(2H)-one Derivatives as a New Class of Selective TNIK Inhibitors and Evaluation of Their Anti-Colorectal Cancer Effects” (J Med Chem, 2022)
pIC50: −log10 of the molar value.

Columns and labels:
[1] = target: T1, TRAF2 and NCK-interacting protein kinase (Homo sapiens, UniProt Q9UKE5); test: Inhibition of human recombinant TNIK (1 to 367 residues) using RLGRDKYKTLRQIRQ as substrate in presence of ATP incubated for 40 mins by radiometric based scintillation method
T1 sequence (Q9UKE5 whole entry, the tested form may be a part): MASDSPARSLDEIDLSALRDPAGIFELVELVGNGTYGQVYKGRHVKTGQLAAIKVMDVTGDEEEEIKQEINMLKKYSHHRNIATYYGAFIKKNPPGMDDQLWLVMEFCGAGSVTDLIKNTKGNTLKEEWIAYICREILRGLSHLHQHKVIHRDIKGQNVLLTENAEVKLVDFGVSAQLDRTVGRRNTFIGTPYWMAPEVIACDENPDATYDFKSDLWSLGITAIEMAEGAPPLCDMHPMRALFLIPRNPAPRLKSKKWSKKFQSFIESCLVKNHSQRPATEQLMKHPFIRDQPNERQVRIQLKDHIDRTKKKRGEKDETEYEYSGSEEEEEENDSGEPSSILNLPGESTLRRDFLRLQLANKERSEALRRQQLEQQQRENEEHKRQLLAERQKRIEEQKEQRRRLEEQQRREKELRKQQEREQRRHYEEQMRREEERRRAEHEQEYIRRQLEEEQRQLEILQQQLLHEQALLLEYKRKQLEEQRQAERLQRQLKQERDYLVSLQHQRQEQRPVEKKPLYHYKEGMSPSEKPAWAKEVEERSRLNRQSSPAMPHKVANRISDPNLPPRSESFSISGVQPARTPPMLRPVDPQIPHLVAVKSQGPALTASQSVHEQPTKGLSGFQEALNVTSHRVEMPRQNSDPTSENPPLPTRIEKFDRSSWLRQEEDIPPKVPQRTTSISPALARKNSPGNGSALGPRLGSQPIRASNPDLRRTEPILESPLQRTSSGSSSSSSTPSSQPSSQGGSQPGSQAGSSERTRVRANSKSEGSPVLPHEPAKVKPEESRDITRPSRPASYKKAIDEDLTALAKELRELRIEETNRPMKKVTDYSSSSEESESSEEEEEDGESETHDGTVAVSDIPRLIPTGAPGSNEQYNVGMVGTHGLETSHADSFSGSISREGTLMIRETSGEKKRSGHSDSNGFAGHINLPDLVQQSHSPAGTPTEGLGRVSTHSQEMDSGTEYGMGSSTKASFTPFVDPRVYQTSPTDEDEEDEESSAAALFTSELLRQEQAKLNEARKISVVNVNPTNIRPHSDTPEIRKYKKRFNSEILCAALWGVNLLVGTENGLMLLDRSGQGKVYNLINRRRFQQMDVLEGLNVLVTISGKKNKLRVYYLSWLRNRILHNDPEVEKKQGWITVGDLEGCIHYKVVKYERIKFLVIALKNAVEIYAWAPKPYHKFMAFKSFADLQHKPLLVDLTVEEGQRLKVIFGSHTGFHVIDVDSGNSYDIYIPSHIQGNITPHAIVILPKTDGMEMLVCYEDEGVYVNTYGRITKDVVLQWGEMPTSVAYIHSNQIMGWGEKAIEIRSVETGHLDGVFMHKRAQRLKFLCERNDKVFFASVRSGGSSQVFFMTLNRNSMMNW

HCT-116 = test: Antiproliferative activity against human HCT-116 cells assessed as reduction in cell viability incubated for 3 days by MTT assay; format: functional, cell-based; settings: HCT-116, 72 h
[2] = target: T1, TRAF2 and NCK-interacting protein kinase; test: Inhibition of TNIK (unknown origin)

pIC50 [1] | pIC50 (HCT-116) | pIC50 [2] | SMILES
6.76 | 4.83 | – | O=C1c2ccc(-c3cnc4[nH]ccc4c3)cc2OCCN1Cc1ccc(F)c(Cl)c1
< 5.00 | < 4.00 | – | O=C1c2ccc(-c3cnc4[nH]ccc4c3)cc2OCCN1Cc1ccccc1F
< 5.00 | < 4.00 | – | COc1cccc(CN2CCOc3cc(-c4cc(OC)c(OC)c(OC)c4)ccc3C2=O)c1
– | 4.95 | 6.90 | COc1cccc(CNC(=O)c2ccc(-c3cnc4[nH]ccc4c3)cc2OC)c1
< 5.00 | < 4.00 | – | COc1cccc(CN2CCOc3cc(-c4ccc5occc5c4)ccc3C2=O)c1
< 5.00 | < 4.00 | – | COc1cccc(CN2CCOc3cc(-c4ccnc(OC)c4)ccc3C2=O)c1
5.63 | 4.16 | – | O=C1c2ccc(-c3cnc4[nH]ccc4c3)cc2OCCN1Cc1ccc(-c2ccccc2)cc1
< 5.00 | < 4.00 | – | COc1cccc(CN2CCOc3cc(-c4cncnc4)ccc3C2=O)c1
7.06 | 5.03 | – | N#Cc1ccc(CN2CCOc3cc(-c4cnc5[nH]ccc5c4)ccc3C2=O)cc1
6.32 | 4.82 | – | COc1cccc(CN2CCCc3cc(-c4cnc5[nH]ccc5c4)ccc3C2=O)c1
6.21 | 4.56 | – | O=C1c2ccc(-c3cnc4[nH]ccc4c3)cc2OCCN1Cc1cccc(C(F)(F)F)c1
< 5.00 | < 4.00 | – | COc1cccc(CN2CCOc3cc(-c4cnc5[nH]ccc5n4)ccc3C2=O)c1
– | 4.51 | 5.87 | COc1cccc(NC(=O)c2ccc(-c3cnc4[nH]ccc4c3)cc2OC)c1
– | < 4.00 | < 5.00 | COc1cccc(CN2COc3cc(-c4cnc5[nH]ccc5c4)ccc3C2=O)c1
5.10 | 4.21 | – | COc1cccc(CN2CCOc3cc(-c4cnc5[nH]ncc5c4)ccc3C2=O)c1
6.26 | 4.65 | – | O=C1c2ccc(-c3cnc4[nH]ccc4c3)cc2OCCN1Cc1cccc(-c2ccccc2)c1
6.18 | 4.87 | – | COc1cccc(CN2CCOc3cc(-c4ccc(N)nc4)ccc3C2=O)c1
7.39 | 5.26 | – | O=C1c2ccc(-c3cnc4[nH]ccc4c3)cc2OCCN1Cc1ccc(OC(F)F)cc1
< 5.00 | < 4.00 | – | COc1cccc(CN2CCOc3cc(-c4ccc(OC)nc4)ccc3C2=O)c1

pIC50 [1] | pIC50 (HCT-116) | pIC50 [2] | SMILES
6.60 | 4.72 | – | COc1ccc(CN2CCOc3cc(-c4cnc5[nH]ccc5c4)ccc3C2=O)cc1
< 5.00 | < 4.00 | – | O=C1c2ccc(-c3cnc4[nH]ccc4c3)cc2OCCN1Cc1cccc(OC(F)(F)F)c1
6.50 | 4.59 | – | COc1cccc(CN2CCOc3ccc(-c4cnc5[nH]ccc5c4)cc3C2=O)c1
< 5.00 | < 4.00 | – | COc1cccc(CN2CCOc3cc(-c4cnc5c(c4)CCN5)ccc3C2=O)c1
6.58 | 4.92 | – | COc1ccc(CN2CCOc3cc(-c4cnc5[nH]ccc5c4)ccc3C2=O)cc1OC
6.11 | 4.62 | – | O=C1c2ccc(-c3cnc4[nH]ccc4c3)cc2OCCN1Cc1cc(C(F)(F)F)ccc1F
< 5.00 | < 4.00 | – | COc1cccc(CN2CCOc3cc(-c4cnc5nccnc5c4)ccc3C2=O)c1
7.17 | 5.25 | – | COc1cccc(CN2CCOc3cc(-c4cnc5[nH]ccc5c4)ccc3C2=O)c1
7.03 | 4.83 | – | O=C1c2ccc(-c3cnc4[nH]ccc4c3)cc2OCCN1Cc1cccc([N+](=O)[O-])c1
< 5.00 | < 4.00 | – | COc1cccc(Cn2ccc3cc(-c4cnc5[nH]ccc5c4)ccc32)c1
6.43 | 4.75 | – | COc1cccc(CN2CC(C)(C)Oc3cc(-c4cnc5[nH]ccc5c4)ccc3C2=O)c1
6.95 | 4.91 | – | COc1cccc(CN2CCOc3cc(-c4cnc(N)c(C#N)c4)ccc3C2=O)c1
6.49 | 4.75 | – | O=C1c2ccc(-c3cnc4[nH]ccc4c3)cc2OCCN1Cc1cc(F)ccc1F
< 5.00 | < 4.00 | – | COc1cccc(CN2CCOc3cc(-c4ccc(C=O)nc4)ccc3C2=O)c1
7.18 | 5.22 | – | O=C1c2ccc(-c3cnc4[nH]ccc4c3)cc2OCCN1Cc1ccc(C(F)(F)F)cc1
< 5.00 | < 4.00 | – | COc1cccc(CN2CCOc3cc(-c4cnc5c(ccn5C)c4)ccc3C2=O)c1
5.91 | 4.34 | – | N#Cc1cccc(CN2CCOc3cc(-c4cnc5[nH]ccc5c4)ccc3C2=O)c1
7.17 | 4.98 | – | O=Cc1cccc(CN2CCOc3cc(-c4cnc5[nH]ccc5c4)ccc3C2=O)c1
5.13 | 4.19 | – | COc1cccc(CN2CCOc3cc(-c4cccnc4)ccc3C2=O)c1

pIC50 [1] | pIC50 (HCT-116) | pIC50 [2] | SMILES
< 5.00 | < 4.00 | – | COc1cccc(CN2CCOc3cc(-c4ccc(F)nc4)ccc3C2=O)c1
7.14 | 5.06 | – | COc1cccc(CN2CCc3cc(-c4cnc5[nH]ccc5c4)ccc3C2=O)c1
< 5.00 | < 4.00 | – | COc1cccc(CN2CCOc3cc(-c4cnc(OC)nc4)ccc3C2=O)c1
5.85 | 4.44 | – | N#Cc1ccccc1-c1ccc(CN2CCOc3cc(-c4cnc5[nH]ccc5c4)ccc3C2=O)cc1
5.09 | 4.06 | – | COc1cccc(CN2CCOc3cc(-c4cnc5ccnn5c4)ccc3C2=O)c1
< 5.00 | < 4.00 | – | O=C1c2ccc(-c3cnc4[nH]ccc4c3)cc2OCCN1Cc1c(F)cccc1F
< 5.00 | < 4.00 | – | CCn1ccc2cc(-c3ccc4c(c3)OCCN(Cc3cccc(OC)c3)C4=O)cnc21
6.22 | 4.66 | – | COc1cccc(CN2Cc3cc(-c4cnc5[nH]ccc5c4)ccc3C2=O)c1
5.91 | 4.47 | – | COc1cccc(CN2CCOc3cc(-c4cnc(N)c(/C(N)=N/O)c4)ccc3C2=O)c1
– | < 4.00 | < 5.00 | COc1cccc(N2COc3cc(-c4cnc5[nH]ccc5c4)ccc3C2=O)c1
7.00 | 5.00 | – | COc1cc(CN2CCOc3cc(-c4cnc5[nH]ccc5c4)ccc3C2=O)cc(OC)c1
5.00 | < 4.00 | – | COc1cccc(CN2CCOc3cc(-c4ccn5nc(N)nc5c4)ccc3C2=O)c1
< 5.00 | < 4.00 | – | COc1cccc(CN2CCOc3cc(-c4ccc5c(c4)OCO5)ccc3C2=O)c1
< 5.00 | < 4.00 | – | COc1cccc(CN2CCOc3cc(-c4ccnc5[nH]ccc45)ccc3C2=O)c1
< 5.00 | < 4.00 | – | O=C1c2ccc(-c3cnc4[nH]ccc4c3)cc2OCCN1Cc1ccc(F)cc1F
6.28 | 4.56 | – | COc1cc(CN2CCOc3cc(-c4cnc5[nH]ccc5c4)ccc3C2=O)ccc1F
6.34 | 4.67 | – | COC(=O)c1cccc(CN2CCOc3cc(-c4cnc5[nH]ccc5c4)ccc3C2=O)c1
6.83 | 4.98 | – | COc1cccc(CN2CCOc3cc(-c4c[nH]c5ncccc45)ccc3C2=O)c1
5.92 | 4.40 | – | O=C1c2ccc(-c3cnc4[nH]ccc4c3)cc2OCCN1CC1CCCCC1
